Reference: ChEMBL document CHEMBL1151668, “Molecular structure of terrecyclodiol: a derivative of the antifungal metabolite terrecyclic acid A from Aspergillus terreus” (1996)
The source made the active and inactive calls. The calls are words filed in the database; no cut-off is given here.

Assays:
[1] = tested on: P388; experiment: Antitumor activity against mouse P388 cells; type: functional
[2] = tested on: Phytophthora cinnamomi; experiment: Growth inhibition of Phytophthora cinnamomi; type: functional, organism-based

Question: How did the Activity [1] turn out when C=C1C(=O)C[C@@H]2[C@@H]3CC[C@@H](C(=O)O)[C@@]12CC3(C)C [TERRECYCLIC ACID A] was run?
Answer: Its Activity is <0.5 µg/mL.

Question: What about the Activity [2] of the same compound?
Answer: The Activity was “Active”.
